Assay results from patent publication US20180244629A1, “Compounds And Compositions For The Treatment Of Cancer” (The Broad Institute, Inc., priority 2013, published 2018).
Where two headings read alike, the source gives them in different places.

Assays:
[1] = test system: PDE3; conditions: reference value; read-out: PDE3 activity (ref); cited from earlier work
[2] = test system: A549 cells; experiment: A549 Cytotoxicity Assay (Cell Titer Glo viability); assay type: cell-based; conditions: Homo sapiens, A549
Experimental: (§1) A549 Cytotoxicity Assay Protocol. Day 0: A549 cells (ATCC, A549 CCL-185) are grown to 95% confluence in RPMI, 10% FBS/Pen/Strep/L-Glutamine. Day 1: Plate cells (1000 per well) in 40 μl culturing media using Corning 384-well plates (3570), incubate in standard TC conditions (5% CO2, 95% humidity, 37° C.) for 24 h. Day 2: Dilute each concentration of a half-log serial dilution of compound (1 mM-100 nM) 1:200 in culturing media and add […] (50 μl total volume) of that dilution to designated wells (8 replicates per concentration). The final dilution will be 1000×([…]). Day 4: Remove plate from incubator to cool for 20 minutes to room temperature. Add 40 μl of a 25% Promega Cell Titer Glo solution (diluted 1:3 with room temperature PBS) with Thermo combi or multichannel and incubate for 10 min. Read on Perkin-Elmer EnVision with US LUM settings for 0.1 second per well.
A549 Assay Protocol. Day 0: A549 cells (ATCC) are grown in a Triple flask (NUNC) to ˜95% confluence (TrypLE Phenol Red free) and resuspended for dispensing at 25,000 cells/mL of DMEM, 10% FBS/Pen/Strep/L-Glutamine (using the TAP Compact SelecT automated cell culture system). Day 1: Plate cells at 1000 per well in 40 uL media (DMEM/10% FBS/Pen/Strep/L-Glutamine) using Corning 8867BC 384 well plates; incubate in standard TC conditions (5% CO2; 95% humidity, 37° C.) for 24 hours (Compact SelecT). Day 2: Add 100 nL compound per well at dose into 40 uL assay volume using a pin tool (CyBi Well). Pin 100 nL cytotoxic compounds, mitoxantrone (CID 4212) to positive control wells to a final concentration of 10 μM (100 nL 4 mM DMSO stock). Incubate for […] at 37° C. in Liconic incubator, 95% humidity 5% CO2. Day 4: Remove plate from incubator, cool for 15 minutes to room temperature; add 20 μL 50% Promega CellTiterGlo (diluted 1:1 with PBS, pH 7.4) with Thermo Combi. Incubate at room temperature for 5 minutes. Read plates on Perkin-Elmer EnVision with standard luminescence settings for 0.1 sec per well.
(§2) Compounds as shown were tested against various cells lines in vitro according to the methods described herein. Cells are plated in 384-well format in a total volume of 40 μl. Indicated compound concentrations were added 24 hrs after plating the cells. After 48 hrs cell viability was determined using Cell Titer Glo® Luminescent Cell Viability Assay.
as §2, with “Known PDE3 inhibitors” for “Compounds”, “shown below” for “shown”

[3] = test system: HeLa cells; experiment: HeLa Cytotoxicity Assay (Cell Titer Glo viability); assay type: cell-based; conditions: Homo sapiens, HeLa
Experimental: HeLa Cytotoxicity Assay Protocol: Day 0: HeLa cells (ATCC, HeLa CCL-2) are grown to 95% confluence in DMEM, 10% FBS/Pen/Strep/L-Glutamine. Day 1: Plate cells (1000 per well) in 40 μl culturing media using Corning 384-well plates (3570), incubate in standard TC conditions (5% CO2, 95% humidity, 37 degrees C.) for 24 hours. Day 2: Dilute each concentration of a half-log serial dilution of compound (1 mM-100 nM) 1:200 in culturing media and add 10 μl (50 μl total volume) of that dilution to designated wells (8 replicates per concentration). The final dilution will be 1000×(1 μM-100 pM). Day 4: Remove plate from incubator to cool for 20 minutes to room temperature. Add 40 μl of a 25% Promega Cell Titer Glo solution (diluted 1:3 with room temperature PBS) with Thermo combi or multichannel and incubate for 10 minutes. Read on Perkin-Elmer EnVision with US LUM settings for 0.1 second per well.
as §2
as §2, with “Known PDE3 inhibitors” for “Compounds”, “shown below” for “shown”

[4] = test system: H2122 cells; experiment: H2122 Assay (Cell Titer Glo viability); assay type: cell-based; conditions: Homo sapiens
Experimental: Selective toxicity in cell line panel. H2122 Assay Protocol Day 0: H2122 cells (ATCC, H2122 CCL-5985) are grown to 95% confluence in RPMI, 10% FBS/Pen/Strep/L-Glutamine. Day 1: Plate cells (750 per well) in 40 μl culturing media using Corning 384-well plates (3570), incubate in standard TC conditions (5% CO2, 95% humidity, 37 degrees C.) for 24 h. Day 2: Dilute each concentration of a half-log serial dilution of compound (1 mM-100 nM) 1:200 in culturing media and add 10 μl (50 μl total volume) of that dilution to designated wells (8 replicates per concentration). The final dilution will be 1000×([…]). Day 4: Remove plate from incubator to cool for 20 minutes to room temperature. Add 40 μl of a 25% Promega Cell Titer Glo solution (diluted 1:3 with room temperature PBS) with Thermo combi or multichannel and incubate for 10 minutes. Read on Perkin-Elmer EnVision with US LUM settings for 0.1 second per well.
as §2

[5] = test system: COLO741 cells; experiment: COLO741 Assay (Cell Titer Glo viability); assay type: cell-based; conditions: Homo sapiens
Experimental: as §1, with “C0L0741” for “A549 Cytotoxicity”, “C0L0741” for “A549”, “(ECACC, C0L0741 93052621)” for “(ATCC, A549 CCL-185)”, “(1500” for “(1000”, “minutes.” for “min.”
as §2

[6] = test system: H1563; experiment: H1563 cell line viability (Cell Titer Glo); assay type: cell-based; conditions: Homo sapiens, NCI-H1563; n = 2; read-out: Potency (EC50) H1563
Experimental: as §2

[7] = known PDE3 inhibitors, Mean (n = 3), read-out: Potency (EC50 nM) A549
[8] = known PDE3 inhibitors, Mean (n = 3), read-out: Potency (EC50 nM) HeLa
[9] = NCI-H2122, 48 h, 48 hrs, Cell Titer Glo, read-out: EC50 H2122
[10] = 48 hrs, Cell Titer Glo, read-out: EC50 A549
[11] = 48 h, Cell Titer Glo, read-out: EC50 HeLa
[12] = Mean ± SD (n = 3), read-out: Potency (EC50 nM) A549
[13] = Mean ± SD (n = 3), read-out: Potency (EC50 nM) HeLa
[14] = COLO-741, Example 18, Mean ± SD (n = 3), read-out: Potency (EC50 nM) COLO741
[15] = NCI-H2122, Example 18, Mean ± SD (n = 3), read-out: Potency (EC50 nM) H2122
[16] = Example 18, Mean ± SD (n = 3), read-out: Potency (EC50 nM) HeLa
[17] = n = 2, read-out: Potency (EC50) A549

## CN(C(=O)CCCOc1ccc2[nH]c(=O)ccc2c1)C1CCCCC1 [Cllostamide, reference compound]
[1]
  IC50: 27 nM
[2]; [7]
  EC50: > 10000 nM
[3]; [8]
  EC50: > 10000 nM

## O=C1CCC(c2ccc(-n3ccnc3)cc2)=NN1 [Imazodan, reference compound]
[1]
  IC50: 1300 nM
[2]; [7]
  EC50: > 10000 nM
[3]; [8]
  EC50: 720 nM

## C[C@@H]1CC(=O)NN=C1c1ccc(NN=C(C#N)C#N)cc1 [Levosimendan, reference compound]
[1]
  IC50: 2.4 nM
[2]; [7]
  EC50: > 10000 nM
[3]; [8]
  EC50: > 10000 nM

## CCN(CC)c1ccc(C2=NNC(=O)CC2C)cc1[N+](=O)[O-] (centres unmarked) [drawing 137]
[4]; [9]
  EC50: 10.3 to 15.6 nM
[2]; [10]
  EC50: > 10000 nM
[3]; [11]
  EC50: 5.5 to 8.7 nM

## CCN1N=C(c2ccc(N(CC)CC)cc2)[C@H](C)CC1=O [drawing 140]
[5]; COLO-741, 48 h, 48 hrs, Cell Titer Glo, read-out: EC50 COLO741
  EC50: > 1000 nM
[4]; [9]
  EC50: > 1000 nM
[2]; [10]
  EC50: > 10000 nM
[3]; [11]
  EC50: > 10000 nM

## C[C@@H]1CC(=O)NN=C1c1ccc(C2CCCCC2)cc1 [drawing 196]
[2]; [12]
  EC50: > 10000 nM
[3]; [13]
  EC50: 7.7 ± 1.3 nM

## C[C@@H]1CC(=O)NN=C1c1ccc(-c2cncnc2)cc1 [drawing 197]
[2]; [12]
  EC50: > 10000 nM
[3]; [13]
  EC50: 13 ± 2 nM

## Cc1cc(=O)[nH]nc1-c1ccc(N)cc1 [drawing 199]
[2]; [12]
  EC50: > 10000 nM
[3]; [13]
  EC50: > 1000 nM

## CCN(CC)c1ccc(-c2n[nH]c(=O)cc2C)cc1 [drawing 200]
[2]; [12]
  EC50: > 10000 nM
[3]; [13]
  EC50: > 1000 nM

## CCN(CC)c1ccc(C2=NNC(=O)CC2C)cc1[N+](=O)[O-] (centres unmarked) [drawing 215]
[5]; [14]
  EC50: 12 ± 1.3 nM
[4]; [15]
  EC50: 13.7 ± 2.8 nM

## C[C@@H]1CC(=O)NN=C1c1ccc(C2CCCCC2)cc1 [drawing 216]
[5]; [14]
  EC50: 11.4 ± 0.3 nM
[4]; [15]
  EC50: 29.6 ± 8.7 nM
[3]; [16]
  EC50: 7.7 ± 1.3 nM

## C[C@@H]1CC(=O)NN=C1c1ccc(N2CCOCC2)c(F)c1 [drawing 217]
[5]; [14]
  EC50: 3.1 ± 0.6 nM
[4]; [15]
  EC50: 3.2 ± 1.1 nM
[3]; [16]
  EC50: 1.6 ± 0.2 nM

## C[C@@H]1CC(=O)NN=C1c1ccc(N2CCOCC2)cc1 [drawing 218]
[5]; [14]
  EC50: 20.2 ± 4.8 nM
[4]; [15]
  EC50: 31.4 ± 10.8 nM
[3]; [16]
  EC50: 13.1 ± 1.9 nM

## C[C@@H]1CC(=O)NN=C1c1ccc(-c2cncnc2)cc1 [drawing 219]
[5]; [14]
  EC50: 19.8 ± 1.8 nM
[4]; [15]
  EC50: 37.8 ± 12.3 nM
[3]; [16]
  EC50: 12.7 ± 2.2 nM

## C[C@@H]1CC(=O)NN=C1c1ccc(F)c(F)c1 [drawing 220]
[5]; [14]
  EC50: 33.2 ± 14.1 nM
[4]; [15]
  EC50: 47.7 ± 14.1 nM
[3]; [16]
  EC50: 22.3 ± 4.5 nM

## CC(=O)Nc1ccc(C2=NNC(=O)C[C@H]2C)cc1[N+](=O)[O-] [drawing 221]
[5]; [14]
  EC50: 7.8 ± 0.3 nM
[4]; [15]
  EC50: 12.3 ± 3.4 nM
[3]; [16]
  EC50: 4.9 ± 1.1 nM

## CCN(CC)c1ccc(C2=NNC(=O)CC2C)cc1[N+](=O)[O-] (centres unmarked) [drawing 226]
[4]; NCI-H2122, n = 2, read-out: Potency (EC50) H2122
  EC50: 12 nM
[6]
  EC50: 12 nM
[2]; [17]
  EC50: > 10000 nM
[3]; n = 2, read-out: Potency (EC50) HeLa
  EC50: 4 nM

## CN/C(=N\c1ccc(C2=NNC(=O)CC2C)cc1)NC#N (centres unmarked) [drawing 237]
[6]
  EC50: > 10000 nM
[2]; [17]
  EC50: > 10000 nM
